In patent US11246898B2 (priority 2017, dated 2022):
Read-outs that look alike come from different tables or passages of the source.

What was measured:
Ebola virus/Zaire [1] = experiment: microbe, parasite or virus in culture; type: cell-based; details: Zaire ebolavirus
in vitro = details: African green monkey
Ebola virus/Zaire [2] = type: cell-based

NC(=O)c1nc(F)c[nH]c1=O [Favipiravir]
EC50 (Ebola virus/Zaire [1]): 96 µM | CC50 (in vitro): > 1000 µM

Allophycocyanin
CC50 (CellTiter96 (MTS) cells): >400 µg/mL | EC50 (Ebola virus/Zaire [2]): 1.77 µg/mL | EC90 (Ebola virus/Zaire [2]): >400 µg/mL
